Results on seven compounds are retold here after EP2899531B1, “Method for detecting a chiral analytes” (Jacobs University Bremen gGmbH, priority 2013, dated 2015).

Peptide text beside a SMILES is read from it.

The test system of test [1] is CB8-MDPP. The experiment in a line: Binding constants of chiral analytes with CB8-MDPP receptor complex, UV/Vis titration. The note with it: CB8-MDPP (20 µM), H2O, 22 °C; from UV/Vis titrations, estimated error ≤ 10%. From the text:
(§1) Bindungskonstanten zwischen CB8-Farbstoff-Komplexen und den in Tabelle 1 aufgeführten Analyten wurden mittels UV/Vis-Titration in H2O, sofern nicht anders angegeben, durchgeführt. Zu einer Lösung aus dem CB8-Farbstoff-Rezeptor wurde schrittweise eine Lösung des Analyten gegeben, und die UV/Vis-Spektren wurden aufgezeichnet. Die normalisierte Absorption bei 419 nm (CB8-MDAP) oder bei 443 nm (CB8-MDPP) wurde mit einer Gleichung für eine 1:1-Bindung mittels der Kleinstquadratmethode angepasst ([50]).

Test [2] has as its system CB8-MDAP. The experiment in a line: Binding constants of chiral analytes with CB8-MDAP receptor complex, UV/Vis titration. The conditions noted are these: CB8-MDAP (100 µM), H2O, 22 °C; from UV/Vis titrations, estimated error ≤ 10%.
Source text: as §1

Test [3] has as its system CB8-MDPP. The experiment in a line: Binding constants of chiral analytes with CB8-MDPP receptor complex, ICD titration. The note with it: CB8-MDPP (20 µM), H2O, 22 °C; obtained by ICD titration. An excerpt:
Die Bindungsaffinitäten der strukturell verschiedenartigen Analyten lagen im Bereich von 10^3 bis 10^6 M^-1, wodurch eine hochempfindliche Detektion ermöglicht wird. Die durch ICD-Titrationen ermittelten Bindungskonstanten bestätigten die durch UV/Vis-Messungen ermittelten. In allen Fällen fungiert CB8 als unverzichtbare Grundlage für die ICD-Effekte. […] Wie erwartet, ergab ein anderer Reporter-Farbstoff, MDAP oder MVE, jeweils ein anderes ICD-Spektrum, jedoch bei gleichermaßen niedriger Analytenkonzentration (40-100 µM, im Vergleich zu 20 µM, s. Tabelle 4, Fig. 3).

As to `NCC(=O)N[C@@H](Cc1c[nH]c2ccccc12)C(=O)NCC(=O)O` [GlyTrpGly] (H-Gly-Trp-Gly-OH), the Ka in test [1] is reported as 5000 10^3 M^-1.
In the case of `N[C@@H](Cc1c[nH]c2ccccc12)C(=O)N1CCC[C@H]1C(=O)O` [TrpPro] (H-Trp-Pro-OH), the Ka in test [2] was 50 10^3 M^-1; in test [1] it was 430 10^3 M^-1.
For `CC(C)[C@H](NC(=O)[C@@H](N)Cc1ccccc1)C(=O)O` [PheVal] (H-Phe-Val-OH), the Ka in test [3] was 1400^d 10^3 M^-1; in test [2], 11 10^3 M^-1; in test [1], 1500 10^3 M^-1.
With `N[C@@H](Cc1c[nH]c2ccccc12)C(=O)NCC(=O)NCC(=O)O` [TrpGlyGly] (H-Trp-Gly-Gly-OH), the Ka in test [1] was 200 10^3 M^-1.
As to `N[C@@H](CCC(=O)O)C(=O)N[C@@H](Cc1c[nH]c2ccccc12)C(=O)O` [GluTrp] (H-Glu-Trp-OH), the Ka in test [2] is 25 10^3 M^-1; in test [1], 210 10^3 M^-1.
In the case of `N[C@@H](CC(=O)O)C(=O)N[C@@H](Cc1ccccc1)C(=O)O` [AspPhe] (H-Asp-Phe-OH), the Ka in test [2] is given as 0.8 10^3 M^-1; in test [1], 7 10^3 M^-1.
For `N[C@@H](Cc1ccccc1)C(=O)NCC(=O)O` [PheGly] (H-Phe-Gly-OH), the results for the Ka in test [2] and in test [1] were 25 10^3 M^-1 and 1900 10^3 M^-1, respectively.
